Test results published in patent US20230312550A1, “N-(2-(4-CYANOTHIAZOLIDIN-3-YL)-2-OXOETHYL)-QUINOLINE-4-CARBOXAMIDES” (AstraZeneca AB, priority 2020, published 2023).
Values after ≈ are worked out from the molar mass of the structure shown.

Tests used:
[1] = Metabolic stability in rat hepatocytes (rHep); details: n = 1 or geometric mean of n = 2-3
[2] = molecular target: Prolyl endopeptidase, Prolyl Oligopeptidase (hPREP) (Homo sapiens (Human), UniProt P48147); test: hPrep inhibition assay; assay type: biochemical; details: hPREP 0.6 nM, Z-Gly-Pro-amino-methylcoumarin 50 μM; read-out: PREP IC50
In short: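 Fluorogenic read-out (340 nm excitation, 460 nm emission) after 20 min at rt, using 50 μM final Z-Gly-Pro-aminomethylcoumarin and 0.6 nM final enzyme, following 15 min compound preincubation. Buffer pH 7.5 with glutathione and Triton X-100. IC50 via one-site model on % inhibition vs log concentration.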

[3] = Metabolic stability in human liver microsomes (HLM); details: human
Description: Metabolic stability in HLM was measured as described in J Comput Aided Mol Des 2015, 29, 795.

[4] = Kinetic solubility; details: kinetic from dmso stock
Description: Kinetic solubility was measured as described in Comput Aided Mol Des 2015, 29, 795.

[5] = molecular target: hFAP (M39-A757) (Homo sapiens (Human), UniProt Q12884); test: hFAP binding assay (surface plasmon resonance); details: SPR, 20° C.; for hFAP Binding assay k(off) / hFAP Binding assay k(on): single cycle kinetics; for Kd: n = 1 or geometric mean n = 2-4
[6] = molecular target: FAP (Homo sapiens (Human), UniProt Q12884); test: hFAP inhibition assay; assay type: biochemical; details: hFAP […], Ala-Pro-AMC 20 μM; n = 1 or geometric mean n = 2-3
In short: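 Compounds (10-point, 3-fold dilutions from 50 μM top) were preincubated 15 min at rt in the dark with 0.48 nM hFAP in pH 7.4 Tris/NaCl/Chaps buffer. Reaction was started with substrate (40 μM solution) and ran 30 min at rt. Read by fluorescence (340/460 nm); IC50 from one-site fit.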

[7] = molecular target: human Fibroblast activation protein alpha (hFAP) (Homo sapiens (Human), UniProt Q12884); test: hFAP inhibition assay (tight binders); assay type: biochemical; details: Ala-Pro-AMC 20 μM, n = 1 or geometric mean n = 2-6; note: hFAP 2.4 pM
Description: The plates were read on a PHERAstar® reader with excitation 340 nm and emission 460 nm. Data were analyzed in Genedata Screener®. IC50 values were determined by plotting % inhibition versus log compound concentration and using a one site dose response model.

[8] = HLM CLint, n = 1 or average of n = 2-3
[9] = Solubility, kinetic solubility, n = 1 or average of n = 2-3

Prolyl endopeptidase, Prolyl Oligopeptidase (hPREP), sequence (P48147 whole entry): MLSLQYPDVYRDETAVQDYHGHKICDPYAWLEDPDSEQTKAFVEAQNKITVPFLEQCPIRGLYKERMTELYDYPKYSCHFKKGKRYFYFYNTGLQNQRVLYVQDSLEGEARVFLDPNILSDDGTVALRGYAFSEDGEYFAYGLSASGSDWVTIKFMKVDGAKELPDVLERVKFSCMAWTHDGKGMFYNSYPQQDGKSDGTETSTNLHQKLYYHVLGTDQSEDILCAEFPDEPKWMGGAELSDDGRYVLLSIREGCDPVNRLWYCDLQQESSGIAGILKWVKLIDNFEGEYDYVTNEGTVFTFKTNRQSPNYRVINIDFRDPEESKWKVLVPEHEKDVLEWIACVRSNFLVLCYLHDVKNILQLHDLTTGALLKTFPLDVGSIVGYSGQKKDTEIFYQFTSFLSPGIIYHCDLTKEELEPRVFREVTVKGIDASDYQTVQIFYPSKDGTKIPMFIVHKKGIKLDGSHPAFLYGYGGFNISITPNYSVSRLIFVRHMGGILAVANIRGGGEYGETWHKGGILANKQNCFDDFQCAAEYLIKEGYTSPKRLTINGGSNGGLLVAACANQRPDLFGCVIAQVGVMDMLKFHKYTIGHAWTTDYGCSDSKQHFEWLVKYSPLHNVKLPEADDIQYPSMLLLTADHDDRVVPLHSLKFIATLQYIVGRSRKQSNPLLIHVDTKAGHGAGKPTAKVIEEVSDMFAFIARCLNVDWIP
hFAP (M39-A757), sequence (Q12884 39-757): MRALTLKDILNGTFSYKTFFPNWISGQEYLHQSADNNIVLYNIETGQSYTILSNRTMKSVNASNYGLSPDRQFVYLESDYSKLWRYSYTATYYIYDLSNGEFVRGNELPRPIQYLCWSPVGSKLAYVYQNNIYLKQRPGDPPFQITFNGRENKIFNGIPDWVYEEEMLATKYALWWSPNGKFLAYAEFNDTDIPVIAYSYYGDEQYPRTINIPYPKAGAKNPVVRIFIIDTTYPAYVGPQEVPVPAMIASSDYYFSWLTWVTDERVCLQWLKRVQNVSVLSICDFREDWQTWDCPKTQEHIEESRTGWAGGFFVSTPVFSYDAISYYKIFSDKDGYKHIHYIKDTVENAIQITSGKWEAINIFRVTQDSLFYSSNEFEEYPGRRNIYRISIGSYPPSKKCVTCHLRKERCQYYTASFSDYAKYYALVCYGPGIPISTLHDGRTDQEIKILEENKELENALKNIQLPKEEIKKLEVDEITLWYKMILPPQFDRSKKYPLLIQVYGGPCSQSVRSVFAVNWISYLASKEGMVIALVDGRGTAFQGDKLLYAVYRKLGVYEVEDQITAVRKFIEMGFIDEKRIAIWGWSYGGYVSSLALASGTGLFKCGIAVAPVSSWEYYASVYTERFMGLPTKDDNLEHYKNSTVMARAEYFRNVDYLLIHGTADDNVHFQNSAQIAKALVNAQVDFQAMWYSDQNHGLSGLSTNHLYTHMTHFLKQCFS
FAP, sequence (Q12884 38-760): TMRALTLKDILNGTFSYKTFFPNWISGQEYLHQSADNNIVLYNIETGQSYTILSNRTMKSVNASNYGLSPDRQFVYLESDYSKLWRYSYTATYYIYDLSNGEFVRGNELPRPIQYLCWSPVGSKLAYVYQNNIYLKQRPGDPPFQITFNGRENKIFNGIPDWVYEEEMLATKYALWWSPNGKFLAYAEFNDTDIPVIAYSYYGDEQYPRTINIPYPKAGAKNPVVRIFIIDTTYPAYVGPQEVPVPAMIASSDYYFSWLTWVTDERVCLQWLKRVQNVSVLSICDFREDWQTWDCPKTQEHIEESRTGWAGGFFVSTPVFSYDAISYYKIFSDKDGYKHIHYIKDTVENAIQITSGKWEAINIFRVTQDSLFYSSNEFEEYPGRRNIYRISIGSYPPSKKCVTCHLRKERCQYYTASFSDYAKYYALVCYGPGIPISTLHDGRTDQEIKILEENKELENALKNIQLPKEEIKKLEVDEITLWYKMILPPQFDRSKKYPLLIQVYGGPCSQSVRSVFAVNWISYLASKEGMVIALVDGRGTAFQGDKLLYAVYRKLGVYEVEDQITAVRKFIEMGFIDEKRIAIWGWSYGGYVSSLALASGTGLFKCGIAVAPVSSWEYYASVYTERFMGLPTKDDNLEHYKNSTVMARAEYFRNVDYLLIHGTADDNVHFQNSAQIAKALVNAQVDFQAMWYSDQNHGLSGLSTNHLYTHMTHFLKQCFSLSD
human Fibroblast activation protein alpha (hFAP), sequence (Q12884 38-760): as above

Row | Compound | rHep CLint [1] [μL/min/1E6] | IC50 [2] [nM] | microsomal CLint [3, 8] [µL/min/mg] | solubility [4, 9] [µM] | hFAP Binding assay k(off) [5] [s⁻¹] | hFAP Binding assay k(on) [5] [M⁻¹ s⁻¹] | Kd [5] [nM] | IC50 [6] [nM] | IC50 [7] [nM] | microsomal CLint [3] [µL/min/mg] | solubility [4] [µM]
1 | C[C@@H]1CN(c2ccc3nccc(C(=O)NCC(=O)N4CSC[C@H]4C#N)c3c2)CCCO1 [Example 64, N-(2-((R)-4-Cyanothiazolidin-3-yl)-2-oxoethyl)-6-((R)-2-methyl-1,4-oxazepan-4-yl)quinoline-4-carboxamide] | 29 | 610 | 56 | 130 (≈ 57.1 µg/mL) | 0.00015 | 1300000 | 0.12 | 0.28 | 0.085 |  | 
2 | N#C[C@@H]1CSCN1C(=O)CNC(=O)c1ccnc2ccc(N3CCOCC3)c(Cl)c12 [Example 101, (R)-5-Chloro-N-(2-(4-cyanothiazolidin-3-yl)-2-oxoethyl)-6-morpholino-quinoline-4-carboxamide] | 2.3 | 380 | 8.6 | > 1000 | 0.000025 | 740000 | 0.034 | 0.38 | 0.35 |  | 
3 | C[C@H]1COC[C@H](C)N1c1ccc2nccc(C(=O)NCC(=O)N3CSC[C@H]3C#N)c2c1 [Example 103, N-(2-((R)-4-Cyanothiazolidin-3-yl)-2-oxoethyl)-6-((3S,5S)-3,5-dimethyl-morpholino)quinoline-4-carboxamide] | 23 | 580 | 54 | > 1000 | 0.00010 | 3000000 | 0.033 | 0.31 | 0.11 |  | 
4 | N#C[C@@H]1CSCN1C(=O)CNC(=O)c1ccnc2ccc(N3CCOCC34CCC4)cc12 [Example 104, (R)—N-(2-(4-cyanothiazolidin-3-yl)-2-oxoethyl)-6-(8-oxa-5-azaspiro[3.5]nonan-5-yl)quinoline-4-carboxamide] | 28 | 650 |  |  | 0.000061 | 3000000 | 0.02 | 0.21 | 0.081 | 130 | 930 (≈ 420 µg/mL)
5 | C[C@@H]1COC[C@@H](C)N1c1ccc2nccc(C(=O)NCC(=O)N3CSC[C@H]3C#N)c2c1 [Example 105, N-(2-((R)-4-Cyanothiazolidin-3-yl)-2-oxoethyl)-6-((3R,5R)-3,5-dimethyl-morpholino)quinoline-4-carboxamide] | 18 | 590 | 180 | > 1000 | 0.000068 | 890000 | 0.082 | 0.37 | 0.088 |  | 
6 | CC[C@H]1COCCN1c1ccc2nccc(C(=O)NCC(=O)N3CSC[C@H]3C#N)c2c1 [Example 106, N-(2-((R)-4-Cyanothiazolidin-3-yl)-2-oxoethyl)-6-((S)-3-ethyl-morpholino)quinoline-4-carboxamide] | 21 | 520 | 47 | 700 (≈ 308 µg/mL) | 0.00014 | 1800000 | 0.075 | 0.23 | 0.08 |  | 

Now from value to compound, other results behind:

Row | rHep CLint [1] [μL/min/1E6] | IC50 [2] [nM] | microsomal CLint [3, 8] [µL/min/mg] | solubility [4, 9] [µM] | hFAP Binding assay k(off) [5] [s⁻¹] | hFAP Binding assay k(on) [5] [M⁻¹ s⁻¹] | Kd [5] [nM] | IC50 [6] [nM] | IC50 [7] [nM] | Compound | microsomal CLint [3] [µL/min/mg] | solubility [4] [µM]
7 | 110 | 100 | 150 | 49 (≈ 20.1 µg/mL) | 0.00047 | 6700000 | 0.055 | 0.28 | 0.17 | C[C@H]1CCCN1c1ccc2nccc(C(=O)NCC(=O)N3CSC[C@H]3C#N)c2c1 [Example 65, N-(2-((R)-4-Cyanothiazolidin-3-yl)-2-oxoethyl)-6-((S)-2-methylpyrrolidin-1-yl)quinoline-4-carboxamide] |  | 
8 | 7.4 | 120 | 14 | 38 (≈ 16 µg/mL) | 0.00014 | 3000000 | 0.048 | 0.21 | 0.046 | N#C[C@@H]1CSCN1C(=O)CNC(=O)c1ccnc2ccc(-c3ccc(F)cn3)cc12 [Example 125, (R)—N-(2-(4-Cyanothiazolidin-3-yl)-2-oxoethyl)-6-(5-fluoropyridin-2-yl)quinoline-4-carboxamide] |  | 
9 | 10 | 260 | 16 | 400 (≈ 161 µg/mL) | 0.00021 | 1800000 | 0.11 | 0.32 | 0.081 | N#C[C@@H]1CSCN1C(=O)CNC(=O)c1ccnc2ccc(-c3cccnc3)cc12 [Example 126, (R)—N-(2-(4-Cyanothiazolidin-3-yl)-2-oxoethyl)-6-(pyridin-3-yl)quinoline-4-carboxamide] |  | 
10 | 8.2 | 130 | 11 | 120 (≈ 48.5 µg/mL) | 0.0020 | 6000000 | 0.34 | 0.38 | 0.16 | N#C[C@@H]1CSCN1C(=O)CNC(=O)c1ccnc2ccc(-c3cncnc3)cc12 [Example 127, (R)—N-(2-(4-Cyanothiazolidin-3-yl)-2-oxoethyl)-6-(pyrimidin-5-yl)-quinoline-4-carboxamide] |  | 
11 | 26 | 210 | 100 | 230 (≈ 109 µg/mL) | 0.000042 | 250000 | 0.093 | 0.41 | 0.19 | N#C[C@@H]1CSCN1C(=O)CNC(=O)c1ccnc2ccc(N3CC(F)(c4ccccc4)C3)cc12 [Example 182, (R)—N-(2-(4-Cyanothiazolidin-3-yl)-2-oxoethyl)-6-(3-fluoro-3-phenyl-azetidin-1-yl)quinoline-4-carboxamide] |  | 
12 | 19 | 140 | 49 | 19 (≈ 8.96 µg/mL) |  |  | 0.086 | 0.33 | 0.19 | Cc1ccc(C2CN(c3ccc4nccc(C(=O)NCC(=O)N5CSC[C@H]5C#N)c4c3)C2)cc1 [Example 183, (R)—N-(2-(4-Cyanothiazolidin-3-yl)-2-oxoethyl)-6-(3-(p-tolyl)azetidin-1-yl)quinoline-4-carboxamide] |  | 
13 | 15 | 130 | 58 | 7 (≈ 3.33 µg/mL) |  |  | 0.043 | 0.23 | 0.12 | N#C[C@@H]1CSCN1C(=O)CNC(=O)c1ccnc2ccc(N3CC(c4ccc(F)cc4)C3)cc12 [Example 185, (R)—N-(2-(4-Cyanothiazolidin-3-yl)-2-oxoethyl)-6-(3-(4-fluorophenyl)-azetidin-1-yl)quinoline-4-carboxamide] |  | 
